# According to ChEMBL document CHEMBL4390702, “Discovery of novel phenoxybenzamide analogues as Raf/HDAC dual inhibitors” (Bioorg Med Chem Lett, 2019):
# pIC50: −log10 of the molar value. The source made the active and inactive calls. The calls are words filed in the database; no cut-off is given here.
# Experiments:
# [1] = molecular target: T1, Histone deacetylase 8 (Homo sapiens) (UniProt Q9BY41); assay: Inhibition of recombinant full-length human C-terminal His-tagged HDAC8 expressed in baculovirus infected Sf9 insect cells at 50 uM using Fluor-de-Lys as substrate measured after 10 mins by fluorescence assay
# T1 sequence (whole entry): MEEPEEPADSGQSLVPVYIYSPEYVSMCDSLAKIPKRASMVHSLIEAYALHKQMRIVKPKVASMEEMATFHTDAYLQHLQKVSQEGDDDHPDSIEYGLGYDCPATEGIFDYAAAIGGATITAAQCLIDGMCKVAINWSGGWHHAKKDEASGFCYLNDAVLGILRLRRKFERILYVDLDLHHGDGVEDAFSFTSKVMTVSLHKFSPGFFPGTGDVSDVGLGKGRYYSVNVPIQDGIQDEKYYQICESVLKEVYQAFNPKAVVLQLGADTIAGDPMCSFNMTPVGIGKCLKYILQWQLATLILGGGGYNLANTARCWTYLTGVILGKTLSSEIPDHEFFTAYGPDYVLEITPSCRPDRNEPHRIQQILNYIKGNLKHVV
# [2] = molecular target: T2, Protein deacetylase HDAC6 (Homo sapiens) (UniProt Q9UBN7); assay: Inhibition of recombinant human HDAC6 at 50 uM using Fluor-de-Lys as substrate measured after 10 mins by fluorescence assay
# T2 sequence (whole entry): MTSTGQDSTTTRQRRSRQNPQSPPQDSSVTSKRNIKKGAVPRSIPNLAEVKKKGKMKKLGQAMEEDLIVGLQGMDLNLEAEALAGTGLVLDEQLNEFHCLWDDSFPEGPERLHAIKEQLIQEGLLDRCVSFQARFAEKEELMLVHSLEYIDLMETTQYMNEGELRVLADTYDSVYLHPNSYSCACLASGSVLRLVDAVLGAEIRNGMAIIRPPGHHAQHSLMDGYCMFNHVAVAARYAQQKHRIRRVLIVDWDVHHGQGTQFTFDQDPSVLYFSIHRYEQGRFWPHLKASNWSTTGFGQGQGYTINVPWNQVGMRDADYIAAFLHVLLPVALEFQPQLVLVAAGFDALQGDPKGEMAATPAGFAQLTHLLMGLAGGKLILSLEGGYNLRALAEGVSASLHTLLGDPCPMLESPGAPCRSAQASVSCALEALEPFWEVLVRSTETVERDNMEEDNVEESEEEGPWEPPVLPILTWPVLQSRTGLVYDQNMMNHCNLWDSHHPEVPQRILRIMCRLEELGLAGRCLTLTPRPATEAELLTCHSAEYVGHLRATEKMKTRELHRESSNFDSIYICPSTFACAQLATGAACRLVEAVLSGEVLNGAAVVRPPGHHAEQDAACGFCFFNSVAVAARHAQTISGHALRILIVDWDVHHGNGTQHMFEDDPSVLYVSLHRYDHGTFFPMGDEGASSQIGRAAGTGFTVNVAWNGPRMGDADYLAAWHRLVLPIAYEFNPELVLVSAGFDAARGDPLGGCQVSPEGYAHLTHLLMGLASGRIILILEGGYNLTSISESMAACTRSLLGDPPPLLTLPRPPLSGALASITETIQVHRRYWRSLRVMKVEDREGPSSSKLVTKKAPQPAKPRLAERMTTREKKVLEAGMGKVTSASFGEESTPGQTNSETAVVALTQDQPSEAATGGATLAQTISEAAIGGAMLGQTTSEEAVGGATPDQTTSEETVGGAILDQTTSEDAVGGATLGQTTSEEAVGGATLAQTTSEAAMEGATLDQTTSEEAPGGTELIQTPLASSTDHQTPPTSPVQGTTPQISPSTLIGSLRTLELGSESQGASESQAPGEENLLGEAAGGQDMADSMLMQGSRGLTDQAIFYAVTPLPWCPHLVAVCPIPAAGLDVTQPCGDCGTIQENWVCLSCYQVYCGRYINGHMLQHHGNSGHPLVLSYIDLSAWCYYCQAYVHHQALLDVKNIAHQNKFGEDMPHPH
# [3] = molecular target: RAF proto-oncogene serine/threonine-protein kinase (Homo sapiens, UniProt P04049); assay: Inhibition of human CRAF using human His6-tagged MEK1 (K97R) as substrate preincubated for 20 mins followed by [33P-gamma]ATP addition and measured after 2 hrs by filter-binding assay
# [4] = molecular target: Serine/threonine-protein kinase B-raf (Homo sapiens, UniProt P15056, V600E); assay: Inhibition of recombinant human N-terminal GST-tagged BRAF V600E mutant catalytic domain (416 to 766 residues) expressed in baculovirus expression system using human His6-tagged MEK1 (K97R) as substrate preincubated for 20 mins followed by [33P-gamma]ATP addition and measured after 2 hrs by filter-binding assay
# MV4-11 = assay: Antiproliferative activity against human MV4-11 cells measured after 48 hrs by MTT assay; format: functional, cell-based; settings: MV4-11, 48 h
# K562 = assay: Antiproliferative activity against human K562 cells measured after 48 hrs by MTT assay; format: functional, cell-based; settings: K562, 48 h
# Histone deacetylase 1 [5] = molecular target: T3, Histone deacetylase 1 (Homo sapiens, UniProt Q13547); assay: Inhibition of recombinant full-length human C-terminal FLAG/His-tagged HDAC1 expressed in baculovirus infected Sf9 insect cells using Fluor-de-Lys as substrate measured after 10 mins by fluorescence assay
# MDA-MB-468 = assay: Antiproliferative activity against human MDA-MB-468 cells measured after 48 hrs by MTT assay; format: functional, cell-based; settings: MDA-MB-468, 48 h
# HepG2 = assay: Antiproliferative activity against human HepG2 cells measured after 48 hrs by MTT assay; format: functional, cell-based; settings: HepG2, 48 h
# [6] = molecular target: T4, Serine/threonine-protein kinase A-Raf (Homo sapiens, UniProt P10398); assay: Inhibition of human ARAF using human His6-tagged MEK1 (K97R) as substrate preincubated for 20 mins followed by [33P-gamma]ATP addition and measured after 2 hrs by filter-binding assay
# T4 sequence (P10398 whole entry): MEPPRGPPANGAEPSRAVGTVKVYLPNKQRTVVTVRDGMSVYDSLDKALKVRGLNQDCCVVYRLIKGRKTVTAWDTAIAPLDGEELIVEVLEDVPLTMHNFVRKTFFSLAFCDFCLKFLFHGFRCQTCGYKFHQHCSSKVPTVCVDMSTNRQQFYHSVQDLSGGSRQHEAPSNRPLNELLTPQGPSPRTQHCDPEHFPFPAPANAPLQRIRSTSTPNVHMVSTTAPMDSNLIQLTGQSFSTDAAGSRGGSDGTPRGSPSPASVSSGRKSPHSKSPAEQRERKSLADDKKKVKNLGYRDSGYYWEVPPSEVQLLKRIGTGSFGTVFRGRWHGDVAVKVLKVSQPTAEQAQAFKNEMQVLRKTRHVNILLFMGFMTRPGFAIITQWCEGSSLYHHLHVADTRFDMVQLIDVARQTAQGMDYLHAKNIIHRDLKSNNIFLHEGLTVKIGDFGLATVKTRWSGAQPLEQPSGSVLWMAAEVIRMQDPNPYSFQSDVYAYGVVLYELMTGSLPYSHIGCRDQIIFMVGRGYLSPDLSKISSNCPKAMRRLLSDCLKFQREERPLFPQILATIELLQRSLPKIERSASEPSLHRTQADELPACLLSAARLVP
# Histone deacetylase 1 [7] = molecular target: T3, Histone deacetylase 1; assay: Inhibition of recombinant full-length human C-terminal FLAG/His-tagged HDAC1 expressed in baculovirus infected Sf9 insect cells at 50 uM using Fluor-de-Lys as substrate measured after 10 mins by fluorescence assay
# Histone deacetylase 1 [8] = molecular target: T3, Histone deacetylase 1; assay: Inhibition of HDAC1 (unknown origin)
# T3 sequence (Q13547 whole entry): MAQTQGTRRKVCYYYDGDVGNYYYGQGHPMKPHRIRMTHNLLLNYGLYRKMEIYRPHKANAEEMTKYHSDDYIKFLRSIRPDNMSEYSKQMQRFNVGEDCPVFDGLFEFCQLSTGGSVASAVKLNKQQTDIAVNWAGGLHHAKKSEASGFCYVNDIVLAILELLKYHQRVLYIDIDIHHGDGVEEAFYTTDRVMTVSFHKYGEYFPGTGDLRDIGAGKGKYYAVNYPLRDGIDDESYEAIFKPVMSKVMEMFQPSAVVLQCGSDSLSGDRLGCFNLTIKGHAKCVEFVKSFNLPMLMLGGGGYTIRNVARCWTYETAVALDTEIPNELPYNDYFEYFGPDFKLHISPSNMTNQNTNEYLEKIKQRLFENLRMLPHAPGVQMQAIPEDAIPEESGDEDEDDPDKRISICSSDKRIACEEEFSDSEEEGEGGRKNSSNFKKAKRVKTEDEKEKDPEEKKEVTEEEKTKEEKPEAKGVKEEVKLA
# Sequence of RAF proto-oncogene serine/threonine-protein kinase (P04049 whole entry, the tested form may be a part): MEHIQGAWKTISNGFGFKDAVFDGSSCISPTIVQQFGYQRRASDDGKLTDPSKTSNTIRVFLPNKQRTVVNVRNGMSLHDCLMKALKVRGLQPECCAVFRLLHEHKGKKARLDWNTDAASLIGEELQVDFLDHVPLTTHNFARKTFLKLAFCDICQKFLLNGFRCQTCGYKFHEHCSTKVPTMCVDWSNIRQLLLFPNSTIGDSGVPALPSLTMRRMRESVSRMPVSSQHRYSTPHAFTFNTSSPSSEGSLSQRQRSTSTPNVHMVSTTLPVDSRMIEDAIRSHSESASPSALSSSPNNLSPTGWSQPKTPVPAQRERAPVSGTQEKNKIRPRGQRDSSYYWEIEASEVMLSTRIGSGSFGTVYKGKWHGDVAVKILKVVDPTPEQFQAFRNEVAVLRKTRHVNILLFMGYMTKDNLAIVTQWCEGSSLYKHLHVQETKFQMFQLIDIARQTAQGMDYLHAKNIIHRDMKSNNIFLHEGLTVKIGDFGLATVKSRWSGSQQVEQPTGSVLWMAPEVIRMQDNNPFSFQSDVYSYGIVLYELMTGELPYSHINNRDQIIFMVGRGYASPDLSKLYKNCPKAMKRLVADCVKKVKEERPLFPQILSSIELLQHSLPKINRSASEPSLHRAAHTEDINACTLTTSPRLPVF
SMILES,inhibition [1],inhibition [2],pIC50 [3],pIC50 [4],pIC50 (MV4-11),pIC50 (K562),pIC50 (Histone deacetylase 1 [5]),pIC50 (MDA-MB-468),pIC50 (HepG2),pIC50 [6],inhibition (Histone deacetylase 1 [7]),pIC50 (Histone deacetylase 1 [8])
CNC(=O)c1cc(Oc2ccc(NC(=O)c3ccc(OC)cc3)cc2)ccc1N,inactive,inactive,6.19,6.73,5.73,5.28,5.61,6.02,5.18,6.68,,
CNC(=O)c1cc(Oc2ccc(NC(=O)c3cccc(N)c3)cc2)ccc1N,,,,5.49,,,5.99,,,,,
CN(C)C(=O)c1cc(Oc2ccc(NC(=O)c3ccc(Cl)c(C(F)(F)F)c3)cc2)ccc1N,,,,5.38,,,,,,,inactive,
NC(=O)c1cc(Oc2ccc(NC(=O)c3ccc(Cl)c(C(F)(F)F)c3)cc2)ccc1N,,,,6.16,,,5.55,,,,,
CNC(=O)c1cc(Oc2ccc(NC(=O)c3ccc(Cl)cc3)cc2)ccc1N,,,,6.78,5.03,5.15,5.15,5.37,5.29,,,
CNC(=O)c1cc(Oc2ccc(NC(=O)Nc3ccc(Cl)c(C(F)(F)F)c3)cc2)ccn1 [SORAFENIB],,,,,6.29,4.76,,4.91,5.52,,,
CCNC(=O)c1cc(Oc2ccc(NC(=O)c3ccc(Cl)c(C(F)(F)F)c3)cc2)ccc1N,,,,6.45,,,5.79,,,,,
CNC(=O)c1cc(Oc2ccc(NC(=O)c3ccc4ccccc4c3)cc2)ccc1N,,,,6.63,5.09,4.99,5.09,5.41,5.14,,,
CNC(=O)c1cc(Oc2ccc(NC(=O)c3cccnc3)cc2)ccc1N,,,,5.75,,,5.28,,,,,5.28
CNC(=O)c1cc(Oc2ccc(NC(=O)c3cccc(O)c3)cc2)ccc1N,,,,5.39,,,5.71,,,,,
Nc1cc(F)ccc1NC(=O)c1ccc(CNC(=O)/C=C/c2cccnc2)cc1 [TUCIDINOSTAT],inactive,inactive,,,5.43,6.06,,5.58,5.31,,,
CNC(=O)c1cc(Oc2ccc(NC(=O)c3ccc(F)cc3)cc2)ccc1N,,,,6.52,5.27,5.19,5.12,5.24,5.12,,,
CNC(=O)c1cc(Oc2ccc(NC(=O)c3ccc(Cl)c(C(F)(F)F)c3)cc2)ccc1N,inactive,inactive,7.04,7.14,5.95,5.56,5.93,6.24,5.88,6.74,,
CNC(=O)c1cc(Oc2ccc(NC(=O)c3ccccc3)cc2)ccc1N,,,,6.47,,,5.21,,,,,
CNC(=O)c1cc(Oc2ccc(NC(=O)c3ccc(N)cc3)cc2)ccc1N,,,,6.03,,,5.64,,,,,
